Measurements as given in patent US10508085B2, “Compounds and methods for IDO and TDO modulation, and indications therefor” (Plexxikon Inc., priority 2016, dated 2019).

Tests used:
[1] = molecular target: T1, Human Indoleamine 2,3-dioxygenase (IDO) (Homo sapiens, UniProt P14902); experiment: Human IDO enzymatic assay (kynurenine level); assay type: biochemical; conditions: 6 nM IDO, 10 μM L-Trp; geometric mean; read-out: IDO1 GMean: IC50 (μM) (Biochemical Assay)
T1 construct: His tag (N); made in house; host or cells: E. coli
T1 sequence (P14902 whole entry): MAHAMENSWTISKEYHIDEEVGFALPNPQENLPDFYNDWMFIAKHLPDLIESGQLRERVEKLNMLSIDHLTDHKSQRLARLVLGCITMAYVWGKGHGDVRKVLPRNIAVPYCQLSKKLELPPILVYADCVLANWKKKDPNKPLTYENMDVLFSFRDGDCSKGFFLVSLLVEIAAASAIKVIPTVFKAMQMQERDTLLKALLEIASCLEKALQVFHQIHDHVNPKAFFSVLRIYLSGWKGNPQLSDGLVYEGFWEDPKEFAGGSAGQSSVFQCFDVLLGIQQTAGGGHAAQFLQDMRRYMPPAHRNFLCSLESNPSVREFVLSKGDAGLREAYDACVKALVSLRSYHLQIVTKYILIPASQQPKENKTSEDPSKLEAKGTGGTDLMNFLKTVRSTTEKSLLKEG
Summary of the method: (§1)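 N-His human IDO (6 nM, 10 μM L-Trp, 5 μM methylene blue, 20 min) or TDO (1 nM, 350 μM L-Trp, 0.4 μM methylene blue, 70 min) run at room temp in pH 6.5 phosphate with ascorbate, catalase, Tween 20. TCA stop, 30 min 50 °C converts N-formylkynurenine to kynurenine; IC50 by nonlinear regression.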

[2] = molecular target: T2, Human Tryptophan 2,3-dioxygenase (TDO) (Homo sapiens, UniProt P48775); experiment: Human TDO enzymatic assay (kynurenine level); assay type: biochemical; conditions: 1 nM TDO, 350 μM L-Trp; geometric mean; read-out: TDO GMean: IC50 (μM) (Biochemical Assay)
T2 construct: His tag (N); made in house; host or cells: E. coli
T2 sequence (P48775 whole entry): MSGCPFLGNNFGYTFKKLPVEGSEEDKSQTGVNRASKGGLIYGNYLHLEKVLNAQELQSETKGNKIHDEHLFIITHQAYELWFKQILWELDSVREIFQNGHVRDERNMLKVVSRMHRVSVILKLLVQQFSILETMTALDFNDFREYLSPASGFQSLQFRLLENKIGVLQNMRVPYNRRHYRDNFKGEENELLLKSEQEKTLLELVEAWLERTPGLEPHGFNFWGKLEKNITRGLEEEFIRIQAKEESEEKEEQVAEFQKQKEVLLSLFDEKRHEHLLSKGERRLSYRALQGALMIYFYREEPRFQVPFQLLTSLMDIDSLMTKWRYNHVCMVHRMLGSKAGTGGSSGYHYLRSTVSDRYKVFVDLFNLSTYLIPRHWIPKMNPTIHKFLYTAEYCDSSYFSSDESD
Summary of the method: as §1

[3] = molecular target: T3, human IDO (IDO1-expressing HEK293 cells) (Homo sapiens, UniProt P14902); experiment: Cell based kynurenine assay, IDO1-expressing HEK293 cell clones; conditions: IDO1-expressing HEK293 cells, 24 hours incubation; geometric mean; read-out: HEK293 IDO1 Kynurenine GMean IC50 (μM) (Cellular Assay)
T3 construct: expressed in transfected cells
T3 sequence (P14902 whole entry): as the sequence (P14902 whole entry) above
Summary of the method: (§2)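 Stably transfected HEK293 clones expressing human IDO1 or TDO (CMV promoter) were seeded at 2.5×10^4 cells/well and treated with serially diluted compounds for 24 h. Supernatant kynurenine was then measured, and % inhibition versus DMSO-treated cell and media-only controls was fitted by nonlinear regression to give IC50.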

[4] = molecular target: T4, human TDO (TDO-expressing HEK293 cells) (Homo sapiens, UniProt P48775); experiment: Cell based kynurenine assay, TDO-expressing HEK293 cell clones; conditions: TDO-expressing HEK293 cells, 24 hours incubation; geometric mean; read-out: HEK293 TDO Kynurenine GMean IC50 (μM) (Cellular Assay)
T4 construct: expressed in transfected cells
T4 sequence (P48775 whole entry): as the sequence (P48775 whole entry) above
Summary of the method: as §2

Row | SMILES | IC50 [1] [µM] | IC50 [2] [µM] | IC50 [3] [µM] | IC50 [4] [µM]
1 | OC(c1cc(Cl)cc2cn[nH]c12)C1CCC1 (centres unmarked) [Compound P-0116, (5-chloro-1H-indazol-7-yl)(cyclobutyl)methanol] | 0.0001 to 10 | 0.0001 to 10 | 0.0001 to 10 | 0.0001 to 10
2 | CC1(C(O)c2cc(Cl)cc3cn[nH]c23)CCC1 (centres unmarked) [Compound P-0117, (5-chloro-1H-indazol-7-yl)(1-methylcyclobutyl)methanol] | 0.0001 to 10 | 0.0001 to 10 | 0.0001 to 10 | 0.0001 to 10
3 | CC(C)(C1CCC1)C(O)c1cc(Cl)cc2cn[nH]c12 (centres unmarked) [Compound P-0118, 1-(5-chloro-1H-indazol-7-yl)-2-cyclobutyl-2-methylpropan-1-ol] | 0.0001 to 10 | 0.0001 to 10 | 0.0001 to 10 | 0.0001 to 10
4 | OC(c1cc(Cl)cc2cn[nH]c12)C1(C(F)(F)F)CC1 (centres unmarked) [Compound P-0119, (5-chloro-1H-indazol-7-yl)(1-(trifluoromethyl)cyclopropyl)methanol] | 0.0001 to 10 | 0.0001 to 10 | 0.0001 to 10 | 0.0001 to 10
5 | OC(c1cc(Cl)cc2cn[nH]c12)C1(C(F)(F)F)CCC1 (centres unmarked) [Compound P-0120, (5-chloro-1H-indazol-7-yl)(1-(trifluoromethyl)cyclobutyl)methanol] | 0.0001 to 10 | 0.0001 to 10 | 0.0001 to 10 | 0.0001 to 10
6 | CCCC1(C(O)c2cc(Cl)cc3cn[nH]c23)CCC1 (centres unmarked) [Compound P-0121, (5-chloro-1H-indazol-7-yl)(1-propylcyclobutyl)methanol] | 0.0001 to 10 | 0.0001 to 10 | 0.0001 to 10 | 0.0001 to 10

Now from value to compound:

Row | IC50 [1] [µM] | IC50 [2] [µM] | IC50 [3] [µM] | IC50 [4] [µM] | SMILES
7 | 0.0001 to 10 | 0.0001 to 10 | 0.0001 to 10 | 0.0001 to 10 | CC1(C(O)c2c3c(cc4cn[nH]c24)CCC3)CCCCC1 (centres unmarked) [Compound P-0099, (1-methylcyclohexyl)(1,5,6,7-tetrahydrocyclopenta[f]indazol-8-yl)methanol]
8 | 0.0001 to 10 | 0.0001 to 10 | 0.0001 to 10 | 0.0001 to 10 | OC1(c2cc(Cl)cc3cn[nH]c23)CC2(C1)[C@H]1C[C@@H]3C[C@@H](C[C@H]2C3)C1 (stereo partly drawn) [Compound P-0100, (1R,5S)-3′-(5-chloro-1H-indazol-7-yl)spiro[adamantane-2,1′-cyclobutan]-3′-ol]
9 | 0.0001 to 10 | 0.0001 to 10 | 0.0001 to 10 | 0.0001 to 10 | N#CC1CC=C(c2cc(Cl)cc3cn[nH]c23)CC1 (stereo not drawn) [Compound P-0105, 4-(5-chloro-1H-indazol-7-yl)cyclohex-3-ene-l-carbonitrile]
10 | 0.0001 to 10 | 0.0001 to 10 | 0.0001 to 10 | 0.0001 to 10 | O=C1NCCC12CCN(c1cc(Cl)cc3cn[nH]c13)CC2 [Compound P-0111, 8-(5-chloro-1H-indazol-7-yl)-2,8-diazaspiro[4.5]decan-l-one]
11 | 0.0001 to 10 | 0.0001 to 10 | 0.0001 to 10 | 0.0001 to 10 | CC1(C(O)c2c(F)c(Cl)c(F)c3cn[nH]c23)CC(F)(F)C1 (centres unmarked) [Compound P-0112, (5-chloro-4,6-difluoro-1H-indazol-7-yl)(3,3-difluoro-1-methylcyclobutyl)methanol]
12 | 0.0001 to 10 | 0.0001 to 10 | 0.0001 to 10 | 0.0001 to 10 | OC1(c2cc(Cl)cc3cn[nH]c23)CC2(C1)C1CC3CC(C1)CC2C3 (centres unmarked) [Compound P-0113, (1r,3r,5r,7r)-3′-(5-chloro-1H-indazol-7-yl)spiro[adamantane-2,1′-cyclobutan]-3′-ol]
13 | 0.0001 to 10 | 0.0001 to 10 | 0.0001 to 10 | 0.0001 to 10 | CC1(C(O)c2c(F)c(Cl)cc3cn[nH]c23)CC(F)(F)C1 (centres unmarked) [Compound P-0114, (5-chloro-6-fluoro-1H-indazol-7-yl)(3,3-difluoro-1-methylcyclobutyl)methanol]
14 | 0.0001 to 10 | 0.0001 to 10 | 0.0001 to 10 | 0.0001 to 10 | COc1cc(C(O)C2(C)CCCCC2)c2[nH]ncc2c1 (centres unmarked) [Compound P-0115, (5-methoxy-1H-indazol-7-yl)(1-methylcyclohexyl)methanol]
